According to PubChem BioAssay (NCI):
Values joined by “and” are separate entries in the source; they are usually repeats but may differ in a detail not shown here. Equal entries are not always repeated.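 Cultured in 96-well plates, cells were exposed to test compound for 48 hours across five concentrations. Here, GI50 denotes the concentration required for 50% inhibition of growth. The concentration for full growth arrest is given as TGI.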

Key:
Assay in all cases: NCI-60 cell line screen, 48 h
LXFL 529 NSCLC = test system: LXFL 529 NSCLC
DMS 273 small cell lung = test system: DMS 273 small cell lung
DMS 114 small cell lung = test system: DMS 114 small cell lung
DLD-1 colon = test system: DLD-1 colon
M19-MEL melanoma = test system: M19-MEL melanoma
HOP-18 NSCLC = test system: HOP-18 NSCLC
PC-3 prostate = test system: PC-3 prostate
MDA-N = test system: MDA-N
BT-549 breast = test system: BT-549 breast

Compound | TGI (LXFL 529 NSCLC) [µM] | TGI (DMS 273 small cell lung) [µM] | TGI (DMS 114 small cell lung) | TGI (DLD-1 colon) [µM] | TGI (M19-MEL melanoma) [µM] | TGI (PC-3 prostate) [µM] | TGI (BT-549 breast) [µM] | GI50 (PC-3 prostate) [µM] | GI50 (BT-549 breast) [µM] | further results
Nc1ncnc2c1ncn2COC/C=C/I | > 100 | > 100 | > 100 µM | > 100 | > 100 | – | – | – | – | TGI (HOP-18 NSCLC): > 100 µM
COC(=O)C(=O)C(C(=O)C(=O)Nc1nc(=S)[nH][nH]1)c1nc2ccc([N+](=O)[O-])cc2[nH]c1=O (stereo unspecified) | – | – | – | – | – | > 100 | > 100 | – | – | TGI (MDA-N): > 100 µM
NC(=S)N=Nc1c(O)[nH]c2ccccc12 | – | – | – | – | – | 392 | 258 | 172 | 131 | –
COc1ccc2c(c1)O/C(=C\c1ccc([N+](=O)[O-])s1)C2=O | – | – | – | – | – | > 100 | – | 1.81 | – | –
CCOc1cc[n+](C(=C=[N-])C#N)cc1 | > 100 | > 100 | > 100 µM | > 100 | > 100 | – | – | – | – | –
COC(=O)C1=C(O)C(C(=O)OC)[C@@]2(O)[C@@H](C(=O)OC)C(c3ccccc3Cl)C[C@@H]1[C@@H]2C(=O)OC (stereo partly specified) | – | – | – | – | – | 36.5 | 33.8 | 5.88 | 7.65 | –
O=S1(=O)C=C(c2ccccc2)C(c2ccccc2)=C1 | – | – | – | – | – | 4.52 | – | 1.79 | – | –
N#CCCn1c(CCC(=O)Nc2ccc(Cl)cc2Cl)n[nH]c1=S | > 100 | > 100 | > 100 µM | > 100 | > 100 | – | – | – | – | –
Cc1ccc(SSCCCCS(=O)O)cc1 | 25.5 | 65.7 | 41.9 µM | > 100 | 64.5 | – | – | – | – | TGI (HOP-18 NSCLC): > 100 µM
Cc1ccccc1NC(=O)CC(=O)n1nc(-c2ccccc2)c(N=Nc2ccc([N+](=O)[O-])cc2)c1-c1ccccc1 | > 100 | 49.4 | 30.3 µM | > 100 | – | – | – | – | – | TGI (HOP-18 NSCLC): 87.8 µM
N#CC1C(=O)NC(=O)C(C#N)C1c1ccc(Cl)c(Cl)c1 (stereo unspecified) | – | – | – | – | – | > 100 | > 100 | – | – | –
O=C(Nc1ccc(N2CCNCC2)cn1)c1[nH]ncc1Nc1ncnc2sc3c(c12)CCC3 | – | – | – | – | – | – | 38.6 | – | 14.1 | –
CCOc1ccccc1NC(=O)C(=O)c1c(O)c2ccc(O)cc2oc1=O | > 100 | > 100 | – | > 100 | > 100 | – | – | – | – | TGI (HOP-18 NSCLC): > 100 µM
NC(N)=N/N=C/c1ccc(Br)cc1 | – | – | – | – | – | 24 | 16.7 | 4.57 | 5.64 | –
COC(=O)CCc1c(/C=C2\N=C(c3ccc[nH]3)C=C2OC)[nH]c(C)c1C(=O)OCc1ccccc1 | – | – | – | – | – | > 37.6 | 2.57 | 0.228 | 0.335 | –
O=C1C=C(OCC=C(Cl)Cl)C(=O)c2ccccc21 | – | – | – | – | – | > 100 | > 30.3 | 5.14 | 4.94 | –
CCCCCCCCCCCCCCCC(N)c1ccccc1 (stereo unspecified) | – | – | – | – | – | 3.26 | 3.11 | 1.67 | 1.63 | –

Compound | TGI (LXFL 529 NSCLC) [µM] | TGI (DMS 273 small cell lung) [µM] | TGI (DMS 114 small cell lung) | TGI (DLD-1 colon) [µM] | TGI (M19-MEL melanoma) [µM] | TGI (PC-3 prostate) [µM] | TGI (BT-549 breast) [µM] | GI50 (PC-3 prostate) [µM] | GI50 (BT-549 breast) [µM] | further results
CCCCCC/C(CC(=O)CCC(=O)NCCc1ccccc1)=N\NC(=O)c1ccc2ccccc2c1O | > 100 | – | – | > 100 | 88.4 | – | – | – | – | TGI (HOP-18 NSCLC): 63.9 µM
COc1cc2c3c(n(CCCN4CCN(CCO)CC4)c(=O)c2cc1OC)-c1cc2c(cc1C3=O)OCO2 | – | – | – | – | – | 35.4 | 12.3 | 13.2 | 2.35 | –
C#Cc1ccccc1N1C(=O)C=CC1=O | > 100 | – | > 100 µM | > 100 | > 100 | – | – | – | – | –
CC(=O)N1CCN(C=S)CC1 | > 100 | > 100 | > 100 µM | > 100 | > 100 | – | – | – | – | –
ClCCCN1CCCCC1CCl (stereo unspecified) | > 100 | > 100 | > 100 µM | > 100 | > 100 | – | – | – | – | TGI (HOP-18 NSCLC): > 100 µM
O=C1/C(=C/c2cccc(F)c2)CN(C(=O)C(Cl)Cl)C/C1=C\c1cccc(F)c1 | – | – | – | – | – | 0.539 | 0.787 | 0.186 | 0.252 | –
CN(C)c1ccc(/C=c2\sc3nnc(Cc4ccccc4)n3c2=O)cc1 | > 100 | > 100 | > 10 µM and 33.8 µM | > 100 | > 100 | – | – | – | – | GI50 (LXFL 529 NSCLC): > 100 µM; GI50 (DMS 273 small cell lung): > 10 µM; GI50 (DMS 114 small cell lung): > 10 µM; GI50 (DLD-1 colon): > 100 µM; GI50 (HOP-18 NSCLC): > 100 µM; TGI (HOP-18 NSCLC): > 100 µM
N#CC1([N+](=O)[O-])C=C1c1ccccc1 (stereo unspecified) | > 100 | > 100 | > 100 µM | > 100 | > 100 | – | – | – | – | –
C[C@H](c1ccc(Cl)cc1[N+](=O)[O-])N1C(=O)c2cc(I)ccc2NC(=O)[C@H]1c1ccc(Cl)cc1 | – | – | – | – | – | > 100 | > 100 | 4.86 | > 100 | –
CN/N=C(/CC(=O)c1sc(NNC(C)=O)nc1C)C(=O)Nc1ccc(OC)cc1OC | > 100 | > 100 | > 100 µM | > 100 | > 100 | – | – | – | – | –
O=[N+]([O-])c1ccc2nc(=S)[nH]n2c1 | – | – | – | – | – | – | > 100 | – | – | –
Nc1ncnc2c1ncn2C1OC(C(=O)OCCO)C(O)C1O (stereo unspecified) | – | – | – | – | – | > 100 | > 100 | – | – | TGI (MDA-N): > 100 µM
COc1cc(OC)c2c(c1Cl)O[C@]1(C2=O)C(OCc2ccccc2)=CC(=O)C[C@H]1C | – | – | – | – | – | 63.3 | 21.1 | 1.6 | 2.28 | –
OCC(O)C(OC1OC(CO)C(O)C(O)C1O)c1nn(-c2ccc(Cl)cc2)c2nc3cc(Cl)ccc3nc12 (stereo unspecified) | > 100 | – | > 100 µM | > 100 | > 100 | – | – | – | – | –
CN1CCN(Cc2ccc(NC(=O)c3cncc(C#Cc4ncc5ccccn45)c3)cc2C(F)(F)F)CC1 | – | – | – | – | – | 8.65 | 5.03 | 1.27 | 1.98 | –
CCOC(=O)C1C(=O)c2cccc(OC)c2C2COC(=O)N12 (stereo unspecified) | > 100 | > 100 | > 100 µM | > 100 | > 100 | – | – | – | – | TGI (HOP-18 NSCLC): > 100 µM
